The test system of data set [1] is A549 adenocarcinoma cell line. Put plainly: Cell proliferation assay, A549 (MTT). As to conditions: Homo sapiens. Here is the method: (§1) In vitro experiments were conducted on four cancer cell lines: the A549 adenocarcinoma cell line, the H520 squamous cell carcinoma the H82 small cell lung carcinoma and Calu 3 lung adenocarcinoma. The A549 tumor cells, were plated at a density of 1.5×10^4 cells per mL and let to adhere on 96-well microplates in F12K cell culture medium enriched with 10% fetal calf serum (FCS). The H520, H82 and Calu 3 tumor cells were plated at a density of 5×10^4 cells per mL in RPMI+10% FCS. After 24 h in culture, the medium was changed and cells were exposed to ASM-024 at concentrations ranging from 10^−7M to 10^−3M (FIGS. 1A-1C). After 3 and 6 days in culture, cell growth was quantified using the MTT colorimetric assay (M2128, Sigma) at 575-690 nm or the Cell Titer fluorescence assay (G8080, Promega) at 560/590 nm.
(§2) In an another set of experiments, a series of 16 other homopiperazinium compounds, in addition to ASM-024, were tested for their anti-proliferative effect on the four tumor cell lines described above after up to 6 days in culture at concentrations of 10^-7M to 10^-3M. (FIGS. 4A-4E) Cell growth was quantified using the MTT colorimetric assay for the A-549, H520 and Calu 3 cell lines and the CellTiter Fluorescence assay.for the H82 tumor cell line These are established method of determining viable cell number in proliferation studies.

Data set [2] relates to H520 squamous cell carcinoma. Put plainly: Cell proliferation assay, H520 (MTT). To be noted: Homo sapiens. The class given is cell-based. As for the experimental part:
as §1, §2

The test system of data set [3] is H82 small cell lung carcinoma. Nature of the data set: Cell proliferation assay, H82 (CellTiter fluorescence). The class given is cell-based. As to conditions: Homo sapiens, NCI-H82, 72 h, read-out: % Inhibition of Cell Growth at day 3 compared to vehicle-treated cells. As for the experimental part: as §1, §2
Data set [4] relates to A549 lung adenocarcinoma. Put plainly: In vitro combination treatment with cisplatin or taxol, A549 (MTT). The class given is cell-based, human. As to conditions: A549, 3 days; increasing concentrations added to suboptimal doses of ASM-024. Here is the method:
The concomitant effect of ASM-024 and cisplatin or taxol on the proliferation of A549 lung adenocarcinoma and MCF7 breast cancer adenocarcinoma cells was assessed in vitro.
A549 cells (3.0×10^3cells/well) were first cultured with 10% FBS in F12K media and MCF7 cells (10×10^3 cells/well) with 10% FBS in EMEM media for 24 hours to allow cells to adhere to the plate at 37° C. in a humidified incubator with 5% CO2. The next day, the media was replaced in medium containing appropriate drug concentrations […] for an additional 72 hours. Cell viability was quantified using the MTT colorimetric assay (M2128, Sigma) at 575-690 nm.

Data set [5] relates to A549 human lung carcinoma cells. Put plainly: In vivo antitumor assay, A549 xenograft in Balb/c nude mice (Example 29). As to conditions: day 49; ASM-024 45 mg/kg s.c. daily day 14-38; taxol 10 mg/kg i.p. days 21, 28, 35; cisplatin 2.5 mg/kg i.p. days 28, 35. As for the experimental part:
For the in vivo antitumor assay, A549 human lung carcinoma cells (3.5×106) in 50% F12K medium (Matrigel) were implanted subcutaneously in the flank of Balb/c nude mice (nu/nu, Charles River) and allowed to grow for 14 days. ASM-024 was administered daily by subcutaneous delivery at the dose of 45 mg/kg from day 14 to day 38 post cell inoculation. Taxol was administrated intraperitoneally at the dose of 10 mg/kg on days 21, 28 and 35. Cisplatin was administrated intraperioneally at the dose of 2.5 mg/kg on days 28 and 35. From day 14 to day 49, tumor length and width were measured once or twice a week with a caliper and tumor volume calculated according to the formula Volume=(width2×length)/2.

The structures appear in SMILES notation. Where two headings read alike, the source gives them in different places.

The term melting point denotes the temperature of the solid-liquid transition. What is called IC50 is the concentration that gives 50% inhibition. Broadly, the inhibition is the relative decrease from the control value, in per cent.

The molecule `CC[N+]1(C)CCCN(c2ccccc2)CC1.[I-]` (stereo not drawn) (hydrate or solvate) [ASM-055, 1-Ethyl-1-Methyl-4-(phenyl)-homopiperazinium Tosylate] gave a melting point of 167.5 to 168.7 °C.
With `C[N+]1(C)CCCN(c2ccccc2)CC1.[I-]` [ASM-002, 1,1-dimethyl-4-phenylhomopiperazinium iodide], the melting point was 158 to 160 °C. The IC50 in data set [1] (A549, 72 h, read-out: IC50 Day 3, A549, day 3 in culture) is 40 ± 15 µM. The half-inhibitory concentration (IC50) in data set [1] (A549, 144 h, read-out: IC50 Day 6, A549, day 6 in culture) worked out at 38 ± 12 µM. Moreover, in data set [2] (NCI-H520, 72 h, read-out: IC50 Day 3, H520, day 3 in culture), the IC50 turned out to be 323 ± 60 µM. Besides, in data set [2] (NCI-H520, 144 h, read-out: IC50 Day 6, H520, day 6 in culture), the half-maximal inhibitory concentration (IC50) amounted to 170 ± 23 µM. For the same molecule, in data set [3], the inhibition at 100 µM is -15% and the inhibition at 300 µM was 31%.
Turning to `N.N.[Cl][Pt][Cl]` [Cisplatin], the “inhibition of in vitro proliferation, combination” value in data set [4] is “potentiated the inhibition of in vitro proliferation”. The “A549 human carcinoma tumor growth (tumor volume)” value in data set [5] is recorded as “decrease in A549 human carcinoma tumor growth”.
On the same counts, the results for `CC(=O)O[C@H]1C(=O)[C@@]2(C)[C@H]([C@H](OC(=O)c3ccccc3)[C@]3(O)C[C@H](OC(=O)[C@H](O)[C@@H](NC(=O)c4ccccc4)c4ccccc4)C(C)=C1C3(C)C)[C@]1(OC(C)=O)CO[C@@H]1C[C@@H]2O` [taxol, Paclitaxel] are “potentiated the inhibition of in vitro proliferation” and “decrease in A549 human carcinoma tumor growth”.
